What all share (assay): NCI tumour cell line growth inhibition, 48 h
In experiment [1] the test system is OVCAR-8 ovarian.
Experiment [2] concerns M14 melanoma.
The test system of experiment [3] is UACC-257 melanoma.
Experiment [4] has as its system SNB-75 CNS.
The test system of experiment [5] is SR leukemia.
The subject of experiment [6] is NCI-H460 lung.

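Cells were grown in 96-well plates and exposed to each compound for 48 hours at five concentrations; endpoints were interpolated linearly between bracketing concentrations, or set to the highest concentration if not reached. TGI: total growth inhibition.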 Bounds are passed on as bounds.

`CCOC(=O)C1C(c2ccccc2)C2(C#N)C(=N)OC1(C)C2(C#N)C#N` (stereo not given): the TGI was 80.4 µM in experiment [1], above 100 µM in experiment [2], 54.2 µM in experiment [3] and 34.7 µM in experiment [4].

Consider `Oc1c(Nc2ccccc2)cc2c3c1N=NC=3CCN=2`, for which the TGI in experiment [5] was above 100 µM; in experiment [1], 59.8 µM; in experiment [6], above 100 µM; in experiment [2] it was above 100 µM; in experiment [4] it was above 100 µM.

In the case of `N[C@@H]1c2c(Br)sc(Br)c2C(=O)[C@H]1Br`, the TGI in experiment [5] is above 64.2 µM; in experiment [1] it was 48.4 µM; in experiment [6] it was above 100 µM; in experiment [2], 50.9 µM; in experiment [3], above 75.3 µM; in experiment [4], above 100 µM.

In the case of `CC(C)(Cl)C(Br)CCC(=CCBr)CBr` (mixture of isomers), the TGI in experiment [1] was 9.25 µM; in experiment [6], 13.6 µM; in experiment [2], 4.25 µM; in experiment [3], 14.2 µM; in experiment [4] it was 7.31 µM.

Consider `Cc1ccc(S(=O)(=O)NN=C2C(C)CC(C(C)(C)C)CC2C)cc1` (stereo not given), for which the TGI in experiment [5] came out at 62.2 µM; in experiment [1], 59.8 µM; in experiment [6], 34.3 µM; in experiment [2] it was 26.9 µM; in experiment [3], 36.6 µM; in experiment [4] it was 37.8 µM.

In the case of `CCOc1ccc(-n2c(=O)c3nn4c(=O)n(-c5ccc(OCC)cc5)c(=O)c4nn3c2=O)cc1`, the TGI in experiment [5] is above 100 µM; in experiment [1] it was above 100 µM; in experiment [6], above 100 µM; in experiment [2], above 100 µM; in experiment [3] it was above 100 µM; in experiment [4] it was 75.7 µM.

For the compound `CC1(C)CC(=O)c2c(nc3c(ccc4ccccc43)c2-c2ccc(NC(=O)CCCCCCCCC(=O)Nc3ccc(-c4c5c(nc6c4ccc4ccccc46)CC(C)(C)CC5=O)cc3)cc2)C1`, the TGI in experiment [5], in experiment [1], in experiment [6], in experiment [2], in experiment [3] and in experiment [4] was above 100 µM in each case.

On to `CCc1nc2c(n1CC)C(=O)c1ccccc1C2=O`, for which the TGI is above 100 µM in experiment [5]; above 100 µM in experiment [1]; above 100 µM in experiment [6]; 54.9 µM in experiment [2]; 51.4 µM in experiment [3]; above 100 µM in experiment [4].

For the compound `COc1cc(/C=C2\N=C(c3ccccc3)N(c3ccc4c(c3)Sc3cc(N5C(=O)/C(=C/c6cc(OC)c(OC)c(OC)c6)N=C5c5ccccc5)ccc3N4)C2=O)cc(OC)c1OC`, the TGI in experiment [1] is 37.9 µM; in experiment [6], above 100 µM; in experiment [2], 80.8 µM; in experiment [3], 31.3 µM; in experiment [4] it was 52.5 µM.

With `CNC(=O)Nn1c(SC)nc2ccccc21`, the TGI in experiment [5], in experiment [1], in experiment [6], in experiment [2] and in experiment [3] was above 100 µM throughout.

On to `COc1cc(Br)cc2c1O[C@H]1C(=O)CC3CC21CCN3C` (stereo not given in full), for which the TGI in experiment [5] is above 100 µM; in experiment [1], 71.7 µM; in experiment [2] it was above 100 µM; in experiment [3], above 100 µM.

`CCCCCCCCOP(=O)(O)OP(=O)(O)OCC1OC(n2ccc(N)nc2=O)C(O)C1O` (stereo not given): the TGI in experiment [1], in experiment [6], in experiment [2], in experiment [3] and in experiment [4] was above 100 µM throughout.

Turning to `CC(C)(C)OC(=O)CCC1NC(=O)[C@@H]2Cc3c([nH]c4ccccc34)C(c3ccccc3)N2C1=O` (stereo not given in full), the TGI in experiment [5] is above 100 µM; in experiment [1], above 100 µM; in experiment [2] it was 87.2 µM; in experiment [3] it was 50.1 µM.

Turning to `CC(=O)c1cc2sc3ccccc3c2[nH]1`, the TGI in experiment [1], in experiment [6] and in experiment [2] was above 100 µM in each case.

In the case of `CN1CCC2(CC1)C(=O)N(NC(N)=O)C(=O)C2c1ccccc1` (stereo not given), the TGI in experiment [1], in experiment [6], in experiment [2], in experiment [3] and in experiment [4] was above 100 µM in each case.

Take `Cc1ccc(C2=NN=C3C(c4ccccc4)=Nc4ccccc4N3C2)cc1`: the TGI in experiment [5] was above 100 µM; in experiment [1], above 100 µM; in experiment [6] it was 18.6 µM; in experiment [2] it was 34.4 µM; in experiment [3], 33.6 µM.

On to `CC(C)C1=CC23CCC4C(C)(C(=O)O)CCCC4(C)C2CC1C1C(=O)N(c2ccc(N4C(=O)C5C6CC7C8(C)CCCC(C)(C(=O)O)C8CCC7(C=C6C(C)C)C5C4=O)cc2)C(=O)C13` (stereo not given), for which the values for the TGI in experiment [5], in experiment [1] and in experiment [2] were 15.9 µM, 16.5 µM and 15.8 µM, respectively.

`Nc1ccc(-c2nnc(-c3c(Cl)c(Cl)c(Cl)c(Cl)c3-c3nc4ccc(C(=O)c5ccccc5)cc4[nH]3)o2)cc1`: the TGI was 28.2 µM in experiment [5]; above 100 µM in experiment [1]; 34.8 µM in experiment [2]; above 100 µM in experiment [3]; 69.2 µM in experiment [4].

Take `Brc1ccc(N=C/C=C(\Nc2ccc(Br)cc2)C23CC4CC(CC(C4)C2)C3)cc1`: the TGI is above 81.3 µM in experiment [1]; above 68.8 µM in experiment [6]; 71 µM in experiment [2]; 36.8 µM in experiment [3]; 35.5 µM in experiment [4].

As to `Cc1ccc(OC2CC(n3cnc4c(=O)[nH]c(Br)nc43)OC2Oc2ccc(C)cc2)cc1` (stereo not given), the TGI in experiment [5] is 51.1 µM; in experiment [1], 66.5 µM; in experiment [6], 43.2 µM; in experiment [2], 62.1 µM; in experiment [3], 62.2 µM.

For `Cn1c(=O)oc2cc(C(=O)CN3CCN(Cc4ccc5c(c4)OCO5)CC3)c(Cl)cc21`, the TGI in experiment [5], in experiment [6] and in experiment [4] was above 100 µM throughout.

Turning to `O=C(O)[C@@]1(Cc2ccc(O)cc2)C[C@@H]2Cc3ccccc3N2N1`, the TGI in experiment [5], in experiment [1], in experiment [2] and in experiment [3] was above 100 µM in each case.

As for `CN1CCN(Cn2nc(-c3ccccc3)n(/N=C/c3ccc(-c4ccc(Cl)cc4Cl)o3)c2=S)CC1`, the TGI in experiment [5] is 5.04 µM; in experiment [1] it was 25.8 µM; in experiment [6], above 100 µM; in experiment [2], 39.1 µM; in experiment [3], 47.5 µM.

Consider `CC1(C)OC[C@@H]([C@H](C=O)OCc2ccccc2)O1`, for which the TGI in experiment [5], in experiment [1], in experiment [2], in experiment [3] and in experiment [4] was above 100 µM throughout.
